From patent US20080051401A1, “2,4,6-Trisubstituted Pyrimidines as Phosphotidylinositol (Pi) 3-Kinase Inhibitors and Their Use in the Treatment of Cancer” (priority 2004, published 2008) come the findings set out here.

The target in one assay is T1, p110α Type Ia human PI3K (Homo sapiens, UniProt P42336).
T1 construct: full length DNA of each of the p110α, p110β and p110δ Type Ia human PI3K p110 isoforms; 6-His; made in house
The experiment in a line: In vitro enzyme assay (AlphaScreen), Test (a). The assay is classed as biochemical. The conditions noted are these: recombinant enzyme, PI(4,5)P2 substrate, ATP 4 μM, read-out: IC50 versus p110α Type Ia human PI3K. The source says: (a) In Vitro Enzyme Assay
The assay used AlphaScreen technology (Gray et al., Analytical Biochemistry, 2003, 313: 234-245) to determine the ability of test compounds to inhibit phosphorylation by recombinant Type I PI3K enzymes of the lipid PI(4,5)P2.
DNA fragments encoding human PI3K catalytic and regulatory subunits were isolated from cDNA libraries using standard molecular biology and PCR cloning techniques. The selected DNA fragments were used to generate baculovirus expression vectors. In particular, full length DNA of each of the p110α, p110β and p110δ Type Ia human PI3K p110 isoforms (EMBL Accession Nos. HSU79143, S67334, Y10055 for p110α, p110β and p110δ respectively) were sub-cloned into a pDEST10 vector (Invitrogen Limited, Fountain drive, Paisley, UK). The vector is a Gateway-adapted version of Fastbac1 containing a 6-His epitope tag. A truncated form of Type Ib human PI3K p110γ isoform corresponding to amino acid residues 144-1102 (EMBL Accession No. X8336A) and the full length human p85α regulatory subunit (EMBL Accession No. HSP13KIN) were also sub-cloned into pFastBac1 vector containing a 6-His epitope tag. The Type Ia p110 constructs were co-expressed with the p85α regulatory subunit. Following expression in the baculovirus system using standard baculovirus expression techniques, expressed proteins were purified using the His epitope tag using standard purification techniques.
DNA corresponding to amino acids 263 to 380 of human Grp1 PH domain was isolated from a cDNA library using standard molecular biology and PCR cloning techniques. […]
Biotinylated-DiC8-PI(3,4,5)P3 (50 nM; Cell Signals Inc., Catalogue No. 107), recombinant purified GST-Grp1 PH protein (2.5 nM) and AlphaScreen Anti-GST donor and acceptor beads (100 ng; Packard Bioscience Limited, Station Road, Pangbourne, Berkshire, UK, Catalogue No. 6760603M) were added and the assay plates were left for about 5 to 20 hours at ambient temperature in the dark. The resultant signals arising from laser light excitation at 680 nm were read using a Packard AlphaQuest instrument. […]
On the technique in general: Alpha assays give light when donor and acceptor beads are brought close together.

Assay [1] concerns phosphorylation of Serine 473 in Akt in MDA-MB-468 human breast adenocarcinoma cell line. The experiment in a line: In vitro phospho-Ser473 Akt assay, Test (b). Conditions: MDA-MB-468 cells, 2 hours incubation, read-out: IC50, inhibition of phosphorylation of Serine 473 in Akt. The assay is classed as cell-based. On the procedure: (b) In Vitro Phospho-Ser473 Akt Assay
This assay determines the ability of test compounds to inhibit phosphorylation of Serine 473 in Akt as assessed using Acumen Explorer technology (Acumen Bioscience Limited), a plate reader that can be used to rapidly quantitate features of images generated by laser-scanning.
A MDA-MB-468 human breast adenocarcinoma cell line (LGC Promochem, Teddington, Middlesex, UK, Catalogue No. HTB-132) was routinely maintained at 37° C. with 5% CO2 up to a confluency of 70-90% in Dulbecco's modified Eagle's growth medium (DMEM; Invitrogen Limited, Paisley, UK Catalogue No. 41966-029) containing 10% heat-inactivated foetal calf serum (FCS; Sigma, Poole, Dorset, UK, Catalogue No. F0392) and 1% L-glutamine (Gibco, Catalogue No. 25030-024).
For the assay, the cells were detached from the culture flask using ‘Accutase’ (Innovative Cell Technologies Inc., San Diego, Calif., USA; Catalogue No. AT104) using standard tissue culture methods and resuspended in media to give 1.7×10^5 cells per ml. Aliquots (90 μl) were seeded into each of the inner 60 wells of a black Packard 96 well plate (PerkinElmer, Boston, Mass., USA; Catalogue No. 6005182) to give a density of ˜15000 cells per well. Aliquots (90 μl) of culture media were placed in the outer wells to prevent edge effects. The cells were incubated overnight at 37° C. with 5% CO2 to allow them to adhere.
On day 2, the cells were treated with test compounds and incubated for 2 hours at 37° C. with 5% CO2. Test compounds were prepared as 10mM stock solutions in DMSO and serially diluted as required with growth media to give a range of concentrations that were 10-fold the required final test concentrations. Aliquots (10 μl) of each compound dilution were placed in a well (in triplicate) to give the final required concentrations. […]
All subsequent aspiration and wash steps were carried out using a Tecan 96 well plate washer (aspiration speed 10 mm/sec). […] An aliquot of PBS (50 μl) was added to each well and the plates were sealed with black plate sealers and the fluorescence signal was detected and analysed. […]

In assay [2] the test system is MDA-MB-468 human breast adenocarcinoma cell line. The experiment in a line: In vitro MDA-MB-468 human breast adenocarcinoma proliferation assay, Test (c). The assay is classed as cell-based. The conditions noted are these: BrdU incorporation, 48 hours incubation, read-out: IC50, inhibition of MDA-MB-468 cell growth. The source says:
(c) In Vitro MDA-MB-468 Human Breast Adenocarcinoma Proliferation Assay
This assay determines the ability of test compounds to inhibit cell proliferation as assessed using Cellomics Arrayscan technology. A MDA-MB-468 human breast adenocarcinoma cell line (LGC Promochem, Catalogue No. HTB-132) was routinely maintained as described in Biological Assay (b) hereinbefore.
For the proliferation assay, the cells were detached from the culture flask using Accutase and seeded into the inner 60 wells of a black Packard 96 well plate at a density of 8000 cells per well in 100 μl of complete growth media. The outer wells contained 100 μl of sterile PBS. The cells were incubated overnight at 37° C. with 5% CO2 to allow them to adhere.
On day 2, the cells were treated with test compounds and incubated for 48 hours at 37° C. with 5% CO2. […]
BrdU incorporation was detected by incubation for 1 hour at ambient temperature with mouse anti-BrdU antibody (50 μl; Caltag, Burlingame, Calif., US; Catalogue No. MD5200) that was diluted 1:40 in PBS containing 1% BSA and 0.05% Tween-20. […] Subsequently, PBS (100 μl) was added to each well and the plates were analysed using a Cellomics array scan to assess total cell number and number of BrdU positive cells.
Fluorescence dose response data obtained with each compound were analysed and the degree of inhibition of MDA-MB-468 cell growth was expressed as an IC50 value.
(Dividing cells build labelled thymidine or BrdU into new DNA.)

T1 sequence (P42336 whole entry, canonical isoform): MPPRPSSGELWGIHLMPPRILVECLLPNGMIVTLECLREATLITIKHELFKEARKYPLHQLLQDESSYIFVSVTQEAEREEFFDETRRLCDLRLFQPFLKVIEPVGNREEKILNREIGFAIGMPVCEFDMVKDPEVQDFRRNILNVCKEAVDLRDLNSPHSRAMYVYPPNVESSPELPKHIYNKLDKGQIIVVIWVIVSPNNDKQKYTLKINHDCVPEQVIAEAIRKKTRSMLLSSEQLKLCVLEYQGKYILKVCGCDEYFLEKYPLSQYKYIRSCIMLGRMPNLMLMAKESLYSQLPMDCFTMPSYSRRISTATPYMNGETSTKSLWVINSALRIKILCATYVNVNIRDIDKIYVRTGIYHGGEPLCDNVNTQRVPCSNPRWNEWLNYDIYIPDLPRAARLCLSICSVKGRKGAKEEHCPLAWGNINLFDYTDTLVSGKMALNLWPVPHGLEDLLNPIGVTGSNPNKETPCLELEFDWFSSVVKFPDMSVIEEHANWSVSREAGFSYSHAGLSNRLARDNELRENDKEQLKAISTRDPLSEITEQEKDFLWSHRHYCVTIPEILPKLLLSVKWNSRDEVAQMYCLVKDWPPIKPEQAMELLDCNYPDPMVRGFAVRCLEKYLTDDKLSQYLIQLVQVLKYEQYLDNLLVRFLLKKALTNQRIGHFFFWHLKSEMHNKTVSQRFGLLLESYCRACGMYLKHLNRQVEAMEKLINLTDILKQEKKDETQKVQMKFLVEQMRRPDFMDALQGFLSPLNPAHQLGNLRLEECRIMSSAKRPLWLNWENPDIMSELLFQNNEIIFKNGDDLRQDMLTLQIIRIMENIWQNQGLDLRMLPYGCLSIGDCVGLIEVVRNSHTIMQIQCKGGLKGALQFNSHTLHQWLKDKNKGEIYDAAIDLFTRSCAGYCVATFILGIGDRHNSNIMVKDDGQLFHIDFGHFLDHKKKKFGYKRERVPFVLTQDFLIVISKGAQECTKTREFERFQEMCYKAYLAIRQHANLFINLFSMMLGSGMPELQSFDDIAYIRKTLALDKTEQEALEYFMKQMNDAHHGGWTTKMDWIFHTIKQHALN
T1 sequence (P27986 whole entry partner, canonical isoform): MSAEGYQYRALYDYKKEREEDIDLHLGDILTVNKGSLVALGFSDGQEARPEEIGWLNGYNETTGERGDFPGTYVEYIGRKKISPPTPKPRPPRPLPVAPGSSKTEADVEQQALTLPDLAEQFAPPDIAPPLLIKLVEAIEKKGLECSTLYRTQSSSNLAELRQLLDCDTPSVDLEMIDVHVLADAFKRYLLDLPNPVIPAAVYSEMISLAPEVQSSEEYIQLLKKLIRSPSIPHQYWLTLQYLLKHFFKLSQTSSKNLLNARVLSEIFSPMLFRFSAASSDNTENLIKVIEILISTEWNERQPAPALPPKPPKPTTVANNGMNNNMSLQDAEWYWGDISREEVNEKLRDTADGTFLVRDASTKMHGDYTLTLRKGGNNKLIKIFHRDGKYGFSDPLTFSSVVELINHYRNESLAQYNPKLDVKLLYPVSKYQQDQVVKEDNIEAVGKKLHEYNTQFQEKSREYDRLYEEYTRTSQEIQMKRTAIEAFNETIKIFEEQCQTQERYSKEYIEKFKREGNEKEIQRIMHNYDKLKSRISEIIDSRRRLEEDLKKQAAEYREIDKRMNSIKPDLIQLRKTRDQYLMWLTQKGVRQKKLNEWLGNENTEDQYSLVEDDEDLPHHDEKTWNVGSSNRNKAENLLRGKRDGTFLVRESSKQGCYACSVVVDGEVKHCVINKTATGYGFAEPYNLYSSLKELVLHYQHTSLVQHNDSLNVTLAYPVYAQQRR

Turning to `O=C(Nc1cccc(-c2cc(N3CCOCC3)nc(-c3cccc(CO)c3)n2)c1)C1CCNCC1` [Example 1, 2-(3-hydroxymethylphenyl)-6-morpholino-4-(3-piperidin-4-ylcarbonylaminophenyl)pyrimidine], the IC50 at p110α Type Ia human PI3K is roughly 100 nM; in assay [1], roughly 5000 nM; in assay [2], roughly 8000 nM.

`O=C(Nc1cccc(-c2cc(N3CCOCC3)nc(-c3cccc(O)c3)n2)c1)C1CCCNC1` (stereo not shown) [Example 6, 2-(3-hydroxyphenyl)-6-morpholino-4-(3-piperidin-3-ylcarbonylaminophenyl)pyrimidine]: the figures for the concentration for half-maximal inhibition (IC50) (on p110α Type Ia human PI3K; in assay [1]) were roughly 100 nM and roughly 300 nM, respectively.

On to `O=C(Nc1cccc(-c2cc(N3CCOCC3)nc(-c3cccc(CO)c3)n2)c1)N1CCNCC1` [Example 10, 2-(3-hydroxymethylphenyl)-6-morpholino-4-(3-piperazin-1-ylcarbonylaminophenyl)pyrimidine], for which the IC50 at p110α Type Ia human PI3K is roughly 300 nM; in assay [1] it was roughly 500 nM.

The term IC50 denotes the midpoint of a concentration-inhibition curve.
